The values below come from ChEMBL document CHEMBL1122977, “A new class of cardiotonic agents: structure-activity correlations for natural and synthetic analogues of the alkaloid A new class of A new class of cardiotonic agents: structure-activity correlations for natural and synthetic analogues of the alkaloid pumiliotoxin B …” (J Med Chem, 1985).

Holding throughout (conditions): Cardiac atrium
For assay [1], the species on record is Cavia porcellus. Nature of the assay: Effect on force of atrial contractions induced by PTX-B in guinea pig. Type of assay: functional, organism-based.
For assay [2], the species on record is Cavia porcellus. Nature of the assay: Effect on force of atrial contractions induced by PTX-B in guinea pig (control value). Format: functional.
The species named for assay [3] is Cavia porcellus. Nature of the assay: Effect on rate of atrial contractions induced by PTX-B in guinea pig. Format: functional, organism-based.
The species entered for assay [4] is Cavia porcellus. Nature of the assay: Effect on rate of atrial contractions induced by PTX-B in guinea pig (control value). Format: functional, organism-based.

By IC50 is commonly meant the concentration at which inhibition is half-maximal.

For `COc1ccc(CCN(C)CCCC(C#N)(c2ccc(OC)c(OC)c2)C(C)C)cc1OC` (stereo not drawn) [VERAPAMIL], the IC50 was 10 µM in the assay listed under Cavia porcellus [1], 0.8 µM in the assay filed under Cavia porcellus [2], 16 µM in the assay filed under Cavia porcellus [3] and 0.7 µM in the assay filed under Cavia porcellus [4].

`COC(=O)C1=C(C)NC(C)=C(C(=O)OC)C1c1ccccc1[N+](=O)[O-]` [NIFEDIPINE]: the IC50 in the assay listed under Cavia porcellus [1] came out at 6 µM; in the assay filed under Cavia porcellus [2], 0.4 µM; in the assay listed under Cavia porcellus [3] it was 12 µM; in the assay listed under Cavia porcellus [4], 0.6 µM.
